Key:
Test in all cases: relative viability (nuclei count vs DMSO), 5 days (fraction); higher = more cells survive
[1] = compound: CC1=CC(=CC=C1)NC2=NC(=CS2)C3=CC=NC=C3 + COc1cccc2cc(-c3nc([C@H]4CC[C@H](C(=O)O)CC4)n4ncnc(N)c34)[nH]c12 [OSI-027] (partner 0.5 µM)
How it was run: (§1)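 One day after seeding in 1536-well plates, lung cancer cell lines were dosed by pin tool. Dosing was either single-drug or a fixed anchor-drug dose plus five library-drug doses (not always all listed) in √10 steps. After 5 days, nuclei were stained in one fix-and-stain step and counted on 4× images, and relative viability is the nuclei count of treated wells over that of vehicle wells, given as the median of duplicate plates.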

[2] = compound: CC1=CC(=CC=C1)NC2=NC(=CS2)C3=CC=NC=C3 + C[C@@H](Oc1cc(-c2cnn(C3CCNCC3)c2)cnc1N)c1c(Cl)ccc(F)c1Cl [Crizotinib] (partner 1 µM)
How it was run: as §1

[3] = compound: CC1=CC(=CC=C1)NC2=NC(=CS2)C3=CC=NC=C3 + Nc1ncn([C@H]2C[C@H](O)[C@@H](CO)O2)c(=O)n1 [Decitabine] (partner 2 µM)
How it was run: as §1

Masitinib + OSI-027 = compound: Cc1ccc(NC(=O)c2ccc(CN3CCN(C)CC3)cc2)cc1Nc1nc(-c2cccnc2)cs1 [Masitinib] + COc1cccc2cc(-c3nc([C@H]4CC[C@H](C(=O)O)CC4)n4ncnc(N)c34)[nH]c12 [OSI-027] (partner 0.5 µM)
How it was run: as §1

Cell Line	relative viability ([1]; first compound 0.08 µM)	relative viability ([1]; first compound 0.253 µM)	relative viability ([1]; first compound 0.8 µM)	relative viability ([1]; first compound 2.53 µM)	relative viability ([1]; first compound 8 µM)	relative viability ([2]; first compound 0.08 µM)	relative viability ([2]; first compound 0.253 µM)	relative viability ([2]; first compound 0.8 µM)	relative viability ([2]; first compound 2.53 µM)	relative viability ([2]; first compound 8 µM)	relative viability ([3]; first compound 0.08 µM)	relative viability ([3]; first compound 0.253 µM)	relative viability ([3]; first compound 0.8 µM)	relative viability ([3]; first compound 2.53 µM)	relative viability ([3]; first compound 8 µM)	relative viability (Masitinib + OSI-027; first compound 0.03162 µM)	relative viability (Masitinib + OSI-027; first compound 0.3162 µM)	relative viability (Masitinib + OSI-027; first compound 1 µM)	relative viability (Masitinib + OSI-027; first compound 0.01 µM)	relative viability (Masitinib + OSI-027; first compound 0.1 µM)
NCI-H1944	0.374	0.36	0.384	0.329	0.39	1.08	0.98	0.973	1.01	0.948	0.367	0.426	0.399	0.361	0.389	0.423	0.352	0.382		
NCI-H2085	0.7	0.614	0.598	0.613	0.522	0.64	0.891	0.918	0.877	0.627	0.479	0.532	0.504	0.452	0.457	0.666	0.47	0.604	0.627	0.918
COR-L 105	0.562	0.62	0.561	0.597	0.581	0.626	0.604	0.634	0.701	0.468	0.648	0.691	0.624	0.572	0.533	0.705	0.613	0.533	0.682	0.764
SK-LU-1	0.32	0.374		0.348	0.273	0.751	1	0.636	0.912	0.938	0.624	0.625	0.563	0.617	0.726	0.334	0.329	0.368	0.361	0.346
PC-3 [JPC-3]	0.651	0.659	0.599	0.607	0.594	0.875	0.913	0.852	0.904	0.799	0.783		0.865	0.72	0.756	0.643	0.64	0.694	0.381	0.783
NCI-H661	0.621	0.653	0.687	0.7	0.578	0.974	1	0.925	0.935	0.908	0.514	0.585	0.556	0.505	0.533	0.648	0.643	0.528	0.672	0.727
NCI-H2087	0.499	0.543	0.554	0.673	0.639	0.895	1.04	0.847	0.67	0.838	0.264	0.293	0.281	0.263	0.238	0.628	0.481	0.437	0.627	0.743
NCI-H1755	0.485	0.7	0.58	0.653	0.588	0.86	0.815	0.803	0.729	0.522	0.654	0.702	0.701	0.617	0.604	0.703	0.687	0.649		0.686
EMC-BAC-2	0.356	0.383	0.385	0.375	0.378	0.642	0.7	0.717	0.643	0.729	0.916		0.91	0.918	0.884	0.381	0.379	0.354	0.379	0.379
NCI-H2009	0.589	0.668	0.676	0.625	0.586	0.917	0.97	1.01	0.939	0.89	0.342	0.425	0.385	0.411	0.376	0.654	0.616	0.606	0.591	0.646
NCI-H596	0.652	0.775	0.777	0.64	0.609	0.875	0.929	0.814	0.943	0.971	0.923	1.02	0.836	0.899	0.91	0.678	0.717	0.697	0.87	0.73
NCI-H650	0.509	0.511	0.544	0.475	0.578	0.683	0.724	0.615		0.914	0.331	0.3	0.336	0.386	0.334	0.427	0.344	0.524	0.538	0.536
NCI-H1915	0.598	0.61	0.602	0.575	0.587	0.84	0.784	0.838	0.87	0.8	0.244	0.277	0.262	0.276	0.261	0.606	0.578	0.546		
SW 1573	0.569	0.593	0.723	0.561	0.536	0.671	0.77	0.864	1.01	0.783	0.48	0.409	0.441	0.454	0.485	0.627	0.66	0.559	0.646	0.798
ChaGo-K-1	0.43	0.459	0.588	0.394	0.485	1.08	1.07	1.14	1.07	1.15	0.528	0.528	0.519	0.522	0.499	0.537	0.695	0.538	0.779	0.603
NCI-H1355	0.262	0.323	0.291	0.343	0.383	1.02	0.781	0.705	0.701	0.61	0.347	0.311	0.351	0.318	0.356	0.359	0.345	0.37	0.345	0.42
NCI-H1651	0.71	0.649	0.77	0.75	0.737	0.854	0.869	0.897	0.851	0.897	0.558	0.55	0.66	0.475	0.628	0.656	0.824	0.706	0.735	0.695

Cell Line	relative viability ([1]; first compound 0.08 µM)	relative viability ([1]; first compound 0.253 µM)	relative viability ([1]; first compound 0.8 µM)	relative viability ([1]; first compound 2.53 µM)	relative viability ([1]; first compound 8 µM)	relative viability ([2]; first compound 0.08 µM)	relative viability ([2]; first compound 0.253 µM)	relative viability ([2]; first compound 0.8 µM)	relative viability ([2]; first compound 2.53 µM)	relative viability ([2]; first compound 8 µM)	relative viability ([3]; first compound 0.08 µM)	relative viability ([3]; first compound 0.253 µM)	relative viability ([3]; first compound 0.8 µM)	relative viability ([3]; first compound 2.53 µM)	relative viability ([3]; first compound 8 µM)	relative viability (Masitinib + OSI-027; first compound 0.03162 µM)	relative viability (Masitinib + OSI-027; first compound 0.3162 µM)	relative viability (Masitinib + OSI-027; first compound 1 µM)	relative viability (Masitinib + OSI-027; first compound 0.01 µM)	relative viability (Masitinib + OSI-027; first compound 0.1 µM)
NCI-H2023	0.337	0.269	0.376	0.228	0.207	0.603	0.525	0.507	0.758	0.37	0.239	0.223	0.245	0.203	0.216	0.412	0.271	0.27	0.387	0.592
LOU-NH91	0.552	0.642	0.651	0.648	0.711	0.706	0.759	0.717	0.728	0.693	0.744	0.797	0.728	0.825	0.78	0.667	0.58	0.655	0.702	0.723
NCI-H3122	0.824	1.03	1.12	1.09	0.969	0.266	0.31	0.334	0.332	0.47	0.366	0.443	0.449	0.467	0.522	1.38	0.969	1.09		
LCLC-97TM1	0.413	0.43	0.546	0.513	0.692			0.744	0.366	0.42	0.204	0.204	0.233	0.254	0.245	0.534	0.568	0.516		0.559
NCI-H647	0.531	0.471	0.659	0.585	0.644	1.04	0.909	0.953	1.02	0.86	0.3	0.437	0.443	0.365	0.436	0.651	0.579	0.602	0.685	0.699
NCI-H838	0.318	0.357	0.37	0.386	0.348	0.817	0.661	0.749	0.819	0.682	0.458	0.473	0.501	0.448	0.457	0.331	0.342	0.394	0.353	0.385
H3255	0.527	0.615	0.726	0.494	0.701	0.721	0.926	0.821	0.795	0.853	0.576	0.506	0.581	0.601	0.553	0.652	0.504	0.538	0.588	0.617
LXF-289	0.794	0.786	0.753	0.729	0.838	0.775	0.785	0.827	0.836	0.751	0.353	0.383	0.391	0.375	0.363	0.963	0.861	0.767	0.747	0.794
HCC-827	0.702	0.755	0.693	0.809	0.732	0.945	0.91	0.854	0.89	0.856	0.298	0.317	0.352	0.287	0.328	0.704	0.84	0.692	0.728	0.832
LK-2	0.165	0.181	0.237	0.185	0.214	0.261	0.197	0.229		0.246	0.298	0.273	0.304	0.204	0.563	0.214	0.201	0.243	0.194	0.198
HCC-366	0.723	0.744	0.959	0.833	0.461	0.346	0.387	0.351	0.451	0.638	0.329	0.357	0.308	0.309	0.263	1	0.792	0.78		
BEN	0.304	0.281	0.295	0.304	0.322	1.11	0.948	0.879	0.779	0.76	0.636	0.687	0.772	0.588	0.781		0.26	0.436	0.306	0.325
NCI-H2347	0.362	0.328		0.419	0.411	0.544	0.688	0.468	0.789	0.777	0.622	0.596	0.53	0.602	0.591	0.531	0.354	0.467	0.403	0.447
201T	0.501	0.438	0.522	0.494	0.536	1.01	0.993	0.955	1.06	0.869	0.898	0.904	0.909	0.937	0.827	0.534		0.729	0.792	0.745
NCI-H358	0.674	0.821	0.715	0.82	0.728	0.509	0.576	0.562	0.542	0.512	0.233	0.22	0.208	0.249	0.225	0.762	0.665	0.731	0.85	0.859
NCI-H520	0.259	0.252	0.302	0.193	0.251	0.741	0.9	0.81	0.839	0.939	0.55	0.468	0.541	0.586	0.61	0.265	0.237	0.228	0.267	0.261

From the supplement of paper PMC10307832
